# Results: patent US20160375019A1, “TREATMENT OF CHRONIC GRAFT VERSUS HOST DISEASE WITH SYK INHIBITORS” (Gilead Sciences, Inc., priority 2015, published 2016)
# Key:
# hepatocytes = format: in vitro ADME; conditions: human
# Protocol: The human […] stability of the compounds as predicted hepatocyte clearance in L/hr/kg was assessed. Compounds to be tested were diluted to 200 μM (4 μl of 10 mM DMSO stock into 196 μl ACN:H2O (50:50). Propranolol was used as a positive control, and buffer only without hepatocytes as 0% control. These were further diluted 4 μl with 891 μl KHB buffer (InVitroGRO catalog number Z99074) to provide 2× dosing solution. To each well of 24 well plate, 250 μl of the 2× dosing solution was added to each well with 250 μl of hepatocytes cells (1×10^6 viable cells/ml per well) or KHB for control samples to achieve a final compound concentration of 1 μM during incubation. The final solvent concentration was 0.01% DMSO and 0.25% ACN. The culture plate was placed on a rocker and incubated at 37° C., 5% CO2. Samples were collected at time 0, 1, 3, and 6 hours. The loss of parent compound was determined using LC-MS methods against a standard curve.
# [1] = Kinetic Solubility in phosphate buffer at pH 7.4; format: physicochemical; conditions: 37 °C, aqueous buffer, kinetic from dmso stock; phosphate buffer pH 7.4
# Protocol: The kinetic solubility of compounds in phosphate buffer at pH 7.4 was assessed. The compounds to be tested were dissolved in dimethylsulfoxide at a 10 mM concentration. Stock samples were diluted, 3 μl with 297 μl of the phosphate buffer at pH 7.4 (DulBecco's phosphate buffered saline (Sigma-Aldrich D8662), overall molarity is 0.149 M and pH 7.43). The samples were then incubated for 24 hours at 37° C. with shaking, the centrifuged and an aliquot taken and tested relative to a known standard concentration of 0.1 mM.
# [2] = test system: basophils (CD63 expression) in human whole blood; assay: 384-well HTBS Whole Blood CD63 Basophil Assay; format: cell-based; conditions: human whole blood (25% blood); comparison table
# Protocol: Syk activity was assessed in relation to reduced activation of basophils as measured by the expression of CD63 in a human whole blood basophil cellular assay (25% blood). Basophil activation was measured in human whole blood using the Flow CAST kit (Buhlmann Laboratories AG, Baselstrasse, Switzerland) following the protocol provided by the manufacturer with minor modifications. Fresh human whole blood in heparin was collected and delivered same day (AllCells, Emeryville, Calif.). Whole blood samples were incubated with either DMSO (1% final) or serial diluted compounds in DMSO for 60 minutes at 37° C. Basophils were activated using the anti-FceRI mAb and stained with anti-CD63-FITC and anti-CCR3-PE for 20 minutes at 37° C. (per well: 50 μL of whole blood was mixed with 113 μL of stimulation buffer, 8.5 μL anti-FceRI mAb, 8.5 μL Ab stain CCR3-PE/CD63-FITC). Cells were centrifuged at 1000×g for 18 minutes and 150 μL/well of supernatant removed. Red blood cells were lysed and cells fixed by 2 rounds of cell lysing: resuspending cell pellets with 150 μL/well 1× lysis buffer, incubating at room temperature for 10 minutes, and collecting cell pellets by centrifuging for 1200 rpms for 5 minutes. Cells were washed with 150 μL/well wash buffer twice, and resuspended in a final volume of 75 μL/well of wash buffer for either immediate flow cytometery analysis or overnight incubation at 4° C. followed by flow cytometry analysis. Degranulation (basophil activation) was detected by CD63 surface expression on CCR3 positive cells. The percent CD63 positive cells within the gated basophil population were determined and normalized to the DMSO (negative control) and control compound (positive control).
# [3] = test system: B cells (CD19+) in PBMCs from cGVHD and inactive cGVHD subjects; assay: Apoptosis Assay: B cells in PBMCs from subjects with active or inactive cGVHD, flow cytometry; format: cell-based, human; conditions: 48 hours
# Protocol: Entospletinib (Formula I) was prepared as a 10 mM stock in dimethyl sulfoxide (DMSO). Before use, entospletinib was thawed from 10 mM DMSO stocks frozen in 0.75 mL polypropylene tubes at −20° C.
# For untreated PBMCs, DMSO alone (the diluent used to generate entospletinib stock solution) was used in the cultures at the equivalent volume as for the 1.0 μM entospletinib treatment group. The cells were then incubated for 48 hr at 37° C. and 5% CO2, harvested, and assessed for the frequency of apoptotic B cells by flow cytometry analysis as described below.
# Flow Cytometry Analysis—Cultured PBMCs were washed in FACS wash buffer (PBS containing 2% FBS) and then resuspended in FACS wash containing Fc block (Human TruStain FcXTM Fc Receptor Blocking Solution from BioLegend, San Diego, Calif.) at the recommended concentration. Following a 15 minute incubation on ice, the cells were stained with Pacific Blue™ conjugated anti-human CD19 antibody (BioLegend, Inc.) for an additional 30 min and then washed in cold PBS, followed by a second wash with Annexin V Binding Buffer (Annexin V Apoptosis Detection Kit-APC, eBioscience, Inc.) according to the manufacturer's instructions. The cells were then resuspended in Annexin V Binding Buffer containing APC-conjugated Annexin V, and incubated in the dark for 15 min at RT. Finally, the cells were washed with cold Annexin V Binding Buffer, resuspended in cold Annexin V Binding Buffer containing 7-AAD (BD Biosciences), kept on ice, and analyzed immediately on a FACSCantoTM flow cytometer. Flow cytometry data files were analyzed using FlowJo software (version X) to identify B cells and determine the frequencies of apoptotic cells based on Annexin V and 7-AAD staining.
# For each set of patient samples, B cell apoptosis induced by entospletinib at each concentration was determined by the following ratio: % Annexin V^+/7-AAD^− B cells (entospletinib-treated)/% Annexin V^+/7-AAD^− B cells (untreated). […] Graphic display and curve fit analysis to determine the EC50 for entospletinib apoptosis-inducing activity in active cGVHD B cells was performed using GraphPad Prism software (GraphPad Software, La Jolla, Calif).
structure (smiles),measurement,setting,value
"Cc1ncc(-c2cn3ccnc3c(Nc3ccc(N4CCN(C5COC5)CC4)cc3)n2)nc1N [Ex.-1, 6-(6-amino-5-methylpyrazin-2-yl)-N-(4-(4-(oxetan-3-yl)piperazin-1-yl)phenyl)imidazo[1,2-a]pyrazin-8-amine]",Hheps CL,hepatocytes,2 mL/min/kg
same,solubility kinetic at 24 h,[1],> 90 µM
"COc1ccc(Nc2nc(-c3ccc(N)nc3)cn3ccnc23)cc1OC [6-(6-aminopyridin-3-yl)-N-(3,4-dimethoxyphenyl)imidazo[1,2-a]pyrazin-8-amine, reference compound]",Hheps CL,hepatocytes,15 mL/min/kg
"Nc1cncc(-c2cn3ccnc3c(Nc3ccc(N4CCOCC4)cc3)n2)c1 [6-(5-aminopyridin-3-yl)-N-(4-morpholinophenyl)imidazo[1,2-a]pyrazin-8-amine, reference compound]",Hheps CL,hepatocytes,11.3 mL/min/kg
"Nc1cncc(-c2cn3ccnc3c(Nc3ccc(N4CCN(C5COC5)CC4)cc3)n2)n1 [Ex.-2, 6-(6-aminopyrazin-2-yl)-N-(4-(4-(oxetan-3-yl)piperazin-1-yl)phenyl)imidazo[1,2-a]pyrazin-8-amine]",Hheps CL,hepatocytes,0.917 mL/min/kg
same,solubility kinetic at 24 h,[1],> 90 µM
"Cc1ncc(-c2cn3ccnc3c(Nc3ccc(N4CCOCC4)cc3)n2)cc1N [6-(5-amino-6-methylpyridin-3-yl)-N-(4-morpholinophenyl)imidazo[1,2-a]pyrazin-8-amine, reference compound]",Hheps CL,hepatocytes,13.3 mL/min/kg
same,IC50,[2],250 nM
"c1cn2cc(-c3ccc4cn[nH]c4c3)nc(Nc3ccc(N4CCOCC4)cc3)c2n1 [Entospletinib, 6-(1H-indazol-6-yl)-N-(4-morpholinophenyl)imidazo[1,2-a]pyrazin-8-amine]","B cell apoptosis, one subject with cGVHD with low level of baseline apoptosis",[3]; 1.0-0.0078 μM,dose-dependent increase in B cell apoptosis
same,"B cell apoptosis, other two cGVHD subjects with higher baseline level of apoptosis",[3]; 1.0-0.0078 μM,caused an increase in B cell apoptosis
same,apoptosis of B cells obtained from subjects with cGVHD,[3]; 1.0-0.0078 μM,caused apoptosis of B cells
same,B cell apoptosis in cGVHD samples versus subjects without cGVHD,"[3]; >125 nM ENTO, mean of 3 donors",statistically significant dose-dependent increase in B cell apoptosis
same,Annexin V+/7AAD− (frequency of parent),"[3]; Inactive #1, 7.8 nM",47.7
same,Annexin V+/7AAD− (frequency of parent),"[3]; Inactive #1, 15.6 nM",45.7
same,Annexin V+/7AAD− (frequency of parent),"[3]; Inactive #1, 31.3 nM",46.6
same,Annexin V+/7AAD− (frequency of parent),"[3]; Inactive #1, 62.5 nM",47.5
same,Annexin V+/7AAD− (frequency of parent),"[3]; Inactive #1, 125 nM",53.4
same,Annexin V+/7AAD− (frequency of parent),"[3]; Inactive #1, 250 nM",51.3
same,Annexin V+/7AAD− (frequency of parent),"[3]; Inactive #1, 500 nM",48.7
same,Annexin V+/7AAD− (frequency of parent),"[3]; Inactive #1, 1000 nM",44.4
same,Annexin V+/7AAD− (frequency of parent),"[3]; Inactive #2, 7.8 nM",41.5
same,Annexin V+/7AAD− (frequency of parent),"[3]; Inactive #2, 15.6 nM",39.8
same,Annexin V+/7AAD− (frequency of parent),"[3]; Inactive #2, 31.3 nM",43.9
same,Annexin V+/7AAD− (frequency of parent),"[3]; Inactive #2, 62.5 nM",42.2
same,Annexin V+/7AAD− (frequency of parent),"[3]; Inactive #2, 125 nM",43.2
same,Annexin V+/7AAD− (frequency of parent),"[3]; Inactive #2, 250 nM",44.9
same,Annexin V+/7AAD− (frequency of parent),"[3]; Inactive #2, 500 nM",50.2
same,Annexin V+/7AAD− (frequency of parent),"[3]; Inactive #2, 1000 nM",50.4
same,Annexin V+/7AAD− (frequency of parent),"[3]; Inactive #3, 7.8 nM",50.4
same,Annexin V+/7AAD− (frequency of parent),"[3]; Inactive #3, 15.6 nM",51.2
same,Annexin V+/7AAD− (frequency of parent),"[3]; Inactive #3, 31.3 nM",51.7
same,Annexin V+/7AAD− (frequency of parent),"[3]; Inactive #3, 62.5 nM",52.1
same,Annexin V+/7AAD− (frequency of parent),"[3]; Inactive #3, 125 nM",52.4
same,Annexin V+/7AAD− (frequency of parent),"[3]; Inactive #3, 250 nM",56.2
same,Annexin V+/7AAD− (frequency of parent),"[3]; Inactive #3, 500 nM",57.1
same,Annexin V+/7AAD− (frequency of parent),"[3]; Inactive #3, 1000 nM",55.6
same,Annexin V+/7AAD− (frequency of parent),"[3]; cGVHD #1, 7.8 nM",40.1
same,Annexin V+/7AAD− (frequency of parent),"[3]; cGVHD #1, 15.6 nM",40.4
same,Annexin V+/7AAD− (frequency of parent),"[3]; cGVHD #1, 31.3 nM",42.0
same,Annexin V+/7AAD− (frequency of parent),"[3]; cGVHD #1, 62.5 nM",48.2
same,Annexin V+/7AAD− (frequency of parent),"[3]; cGVHD #1, 125 nM",48.2
same,Annexin V+/7AAD− (frequency of parent),"[3]; cGVHD #1, 250 nM",50.7
same,Annexin V+/7AAD− (frequency of parent),"[3]; cGVHD #1, 500 nM",53.6
same,Annexin V+/7AAD− (frequency of parent),"[3]; cGVHD #1, 1000 nM",55.0
same,Annexin V+/7AAD− (frequency of parent),"[3]; cGVHD #2, 7.8 nM",41.0
same,Annexin V+/7AAD− (frequency of parent),"[3]; cGVHD #2, 15.6 nM",40.7
same,Annexin V+/7AAD− (frequency of parent),"[3]; cGVHD #2, 31.3 nM",39.6
same,Annexin V+/7AAD− (frequency of parent),"[3]; cGVHD #2, 62.5 nM",41.5
same,Annexin V+/7AAD− (frequency of parent),"[3]; cGVHD #2, 125 nM",43.9
same,Annexin V+/7AAD− (frequency of parent),"[3]; cGVHD #2, 250 nM",48.6
same,Annexin V+/7AAD− (frequency of parent),"[3]; cGVHD #2, 500 nM",48.3
same,Annexin V+/7AAD− (frequency of parent),"[3]; cGVHD #2, 1000 nM",53.5
same,Annexin V+/7AAD− (frequency of parent),"[3]; cGVHD #3, 7.8 nM",19.6
same,Annexin V+/7AAD− (frequency of parent),"[3]; cGVHD #3, 15.6 nM",20.0
same,Annexin V+/7AAD− (frequency of parent),"[3]; cGVHD #3, 31.3 nM",20.8
same,Annexin V+/7AAD− (frequency of parent),"[3]; cGVHD #3, 62.5 nM",21.6
same,Annexin V+/7AAD− (frequency of parent),"[3]; cGVHD #3, 125 nM",26.4
same,Annexin V+/7AAD− (frequency of parent),"[3]; cGVHD #3, 250 nM",29.5
same,Annexin V+/7AAD− (frequency of parent),"[3]; cGVHD #3, 500 nM",32.7
same,Annexin V+/7AAD− (frequency of parent),"[3]; cGVHD #3, 1000 nM",42.2
"Cc1ncc(-c2cn3ccnc3c(Nc3ccc(N4CCN(C5COC5)CC4)c(OCCO)c3)n2)nc1N [Ex.-7, 2-(5-((6-(6-amino-5-methylpyrazin-2-yl)imidazo[1,2-a]pyrazin-8-yl)amino)-2-(4-(oxetan-3-yl)piperazin-1-yl)phenoxy)ethanol]",Hheps CL,hepatocytes,0.833 mL/min/kg
same,solubility kinetic at 24 h,[1],> 90 µM
"COc1ccc(Nc2nc(-c3cccc(N)c3)cn3ccnc23)cc1OC [6-(3-aminophenyl)-N-(3,4-dimethoxyphenyl)imidazo[1,2-a]pyrazin-8-amine, reference compound]",Hheps CL,hepatocytes,4 mL/min/kg
same,IC50,[2],809 nM
